US20180207111A1, “IMMUNOTHERAPY FOR CASR-EXPRESSING CANCER (E.G. NEUROBLASTOMA)” (HOSPITAL SANT JOAN DE DEU, priority 2015, published 2018)

System: LA-N-1 xenografts
Experiment: Genome-wide expression analysis of xenografts, Affymetrix Human Gene Array 2.1 ST
Format: in vivo
Details: three longest-treated xenografts C9-C11 vs vehicle V5-V12
Description: Total RNA was isolated from 8 xenografts exposed to Cinacalcet (C) and 8 from the control group (V). These were the last 8 tumors excised in each group, so that analyzed xenografts were those exposed to the longest period of treatment (V5-V12 and C4-C11). Two different mRNA expression analyses were conducted: Genome-wide expression analysis by microarrays (Example 3) and by RT-qPCR (Example 4).
Genome-wide expression analyses were performed using Affymetrix Human and Mouse Gene Array 2.1 ST (Affymetrix, reference number 902136 for human gene array and 902120 for mouse gene array) as per manufacturer's protocol. Procedures to analyze results included: Quality control of the arrays (following this step, xenograft C6 was removed from further analyses); filtering and normalization; selection of differentially expressed genes; single comparison (treated versus control samples); list of differentially expressed genes ranked by significance; Volcano plots showing the most differentially expressed genes; heatmaps of the clustered expression profiles; and analysis of biological significance through enrichment analysis against the Gene Ontologies, KEGG (Kyoto Encyclopedia of Genes and Genomes) and Ingenuity pathways.
However, these differences of gene expression were not statistically significant, adjusted P-value >0.05 (Table 3). Nonetheless, in this first analysis, corresponding to heatmap on FIG. 3, it was apparent that a group of genes were specifically modulated in the three tumors exposed to Cinacalcet for the longest period of time. This was confirmed by a second genome-wide expression analysis that examined differentially expressed genes in these three specimens (C9-C11) compared to the 8 vehicle-treated tumors (V5-V12) (FIG. 4).

C[C@@H](NCCCc1cccc(C(F)(F)F)c1)c1cccc2ccccc12 [Cinacalcet] was tested, and the “Log fold change, probe 17104825 (CXorf49//CXorf49B)” value (adjusted P 0.00358764) was 1.857, the “Log fold change, probe 16695923 (FAM78B)” value (adjusted P 0.00986984) was 1.543 and the “Log fold change, probe 17070589 (CNBD1)” value (adjusted P 0.00986984) was 1.801. For the same molecule, the “Log fold change, probe 17103272 (SSX4B//SSX4)” value (adjusted P 0.00986984) was 1.389, the “Log fold change, probe 17104821 (CXorf49//CXorf49B)” value (adjusted P 0.00986984) was 2.714 and the “Log fold change, probe 16972634 (LOC285500)” value (adjusted P 0.01361569) was 1.359. The “Log fold change, probe 17103626 (GAGE12G//GAGE12F//GAGE12I//GAGE7//... GAGE family, Entrez 645073)” value (adjusted P 0.01682153) was 2.202, the “Log fold change, probe 17103647 (GAGE2A//GAGE2C//GAGE2B//GAGE2D//... GAGE family, Entrez 729447)” value (adjusted P 0.01746325) was 2.059 and the “Log fold change, probe 17103679 (GAGE2A//GAGE2C//GAGE12G//GAGE12F//... GAGE family, Entrez 729447)” value (adjusted P 0.01746325) was 2.03. The “Log fold change, probe 16837128 (PRKCA)” value (adjusted P 0.01874439) was 1.165, the “Log fold change, probe 16926807 (CECR7)” value (adjusted P 0.01874439) was 1.23 and the “Log fold change, probe 17103653 (GAGE12C//GAGE12D//GAGE12E//GAGE12G//... GAGE family, Entrez 729422)” value (adjusted P 0.01874439) was 2.183. The “Log fold change, probe 17103655 (GAGE12C//GAGE12D//GAGE12E//GAGE12H//... GAGE family, Entrez 729422)” value (adjusted P 0.01874439) was 2.032, the “Log fold change, probe 17103673 (GAGE12G//GAGE12C//GAGE12D//GAGE12E//... GAGE family, Entrez 645073)” value (adjusted P 0.01874439) was 1.962 and the “Log fold change, probe 16982161 (PDLIM3)” value (adjusted P 0.02269447) was 1.187. For the same molecule, the “Log fold change, probe 16986694 (SPZ1)” value (adjusted P 0.02269447) was 1.239, the “Log fold change, probe 17103614 (GAGE12J//GAGE2D//GAGE2E//GAGE8//... GAGE family, Entrez 729396)” value (adjusted P 0.02269447) was 1.853 and the “Log fold change, probe 17103620 (GAGE13//GAGE12D//GAGE12E//GAGE12B//... GAGE family, Entrez 645051)” value (adjusted P 0.02269447) was 2.07. The “Log fold change, probe 17103690 (GAGE12H//GAGE12C//GAGE12D//GAGE12E//... GAGE family, Entrez 729442)” value (adjusted P 0.02269447) was 1.931, the “Log fold change, probe 17110576 (SSX4//SSX4B)” value (adjusted P 0.02269447) was 1.272 and the “Log fold change, probe 16938527 (RBMS3)” value (adjusted P 0.02361429) was 1.243. The “Log fold change, probe 16711753 (PROSER2-AS1)” value (adjusted P 0.0249218) was 1.36, the “Log fold change, probe 16838249 (LOC100507351)” value (adjusted P 0.0249218) was 1.078 and the “Log fold change, probe 17111994 (RGAG4)” value (adjusted P 0.0249218) was 1.076. For the same molecule, the “Log fold change, probe 17113928 (TENM1)” value (adjusted P 0.03166044) was 1.577, the “Log fold change, probe 16679142 (RYR2)” value (adjusted P 0.04211565) was 1.356 and the “Log fold change, probe 17043613 (LOC100505938)” value (adjusted P 0.04288827) was 1.14. For the same molecule, the “Log fold change, probe 16970118 (SYNPO2)” value (adjusted P 0.04520061) was 1.722, the “Log fold change, probe 17115014 (GABRA3)” value (adjusted P 0.04520061) was 1.248 and the “Log fold change, probe 16732397 (POU2F3)” value (adjusted P 0.0462006) was 1.148. For the same molecule, the “Log fold change, probe 16752147 (NEUROD4)” value (adjusted P 0.04907024) was 1.009, the “Log fold change, probe 16928510 (SEZ6L)” value (adjusted P 0.04907024) was 1.17 and the “Log fold change, probe 16812942 (NTRK3)” value (adjusted P 0.05146784) was 1.186. For the same molecule, the “Log fold change, probe 16920617 (CTCFL)” value (adjusted P 0.05146784) was 1.866.
